Here are results for 51 compounds from patent publication US12637410B2, “Vesicular monoamine transporter-2 ligands and their use in the treatment of psychostimulant abuse” (priority 2016, dated 2026).

For orientation: Ki means the dissociation constant of the complex between target and ligand, obtained from inhibition or displacement.

The target in one assay is T1, VMAT2 (Rattus norvegicus, UniProt Q01827).
T1 construct: from tissue; host or cells: rat striatum, isolated synaptic vesicles
Nature of the assay: [3H]Dopamine ([3H]DA) uptake assay, vesicular preparation. It counts as biochemical.

In the next assay the target is T2, hERG channel (Homo sapiens, UniProt Q12809).
T2 construct: purchased; host or cells: HEK-293 cells stably expressing hERG (membranes)
Nature of the assay: [3H]Dofetilide binding assay, HEK-293 cell membrane preparation. Particulars: hERG Binding: Mean Ki (nM), [3H]dofetilide binding, HEK-293 membranes; mean of n>=3 unless N given. The procedure: Membranes were suspended in assay buffer (50 mM Tris, 10 mM KCl, 1 mM MgCl2, pH 7.4) prior to the experiment. […] Nonspecific binding was determined in the presence of amitriptyline (1 mM). Samples were incubated for 1 hr. at 24° C., followed by rapid filtration.

Setting [1] is: [3H]DA uptake, rat vesicular preparation, mean of n>=3 unless N given, read-out: VMAT2 (rat) Inhibition: Mean Ki.

Read-outs that look alike come from different tables or passages of the source.

T2 sequence (Q12809 whole entry): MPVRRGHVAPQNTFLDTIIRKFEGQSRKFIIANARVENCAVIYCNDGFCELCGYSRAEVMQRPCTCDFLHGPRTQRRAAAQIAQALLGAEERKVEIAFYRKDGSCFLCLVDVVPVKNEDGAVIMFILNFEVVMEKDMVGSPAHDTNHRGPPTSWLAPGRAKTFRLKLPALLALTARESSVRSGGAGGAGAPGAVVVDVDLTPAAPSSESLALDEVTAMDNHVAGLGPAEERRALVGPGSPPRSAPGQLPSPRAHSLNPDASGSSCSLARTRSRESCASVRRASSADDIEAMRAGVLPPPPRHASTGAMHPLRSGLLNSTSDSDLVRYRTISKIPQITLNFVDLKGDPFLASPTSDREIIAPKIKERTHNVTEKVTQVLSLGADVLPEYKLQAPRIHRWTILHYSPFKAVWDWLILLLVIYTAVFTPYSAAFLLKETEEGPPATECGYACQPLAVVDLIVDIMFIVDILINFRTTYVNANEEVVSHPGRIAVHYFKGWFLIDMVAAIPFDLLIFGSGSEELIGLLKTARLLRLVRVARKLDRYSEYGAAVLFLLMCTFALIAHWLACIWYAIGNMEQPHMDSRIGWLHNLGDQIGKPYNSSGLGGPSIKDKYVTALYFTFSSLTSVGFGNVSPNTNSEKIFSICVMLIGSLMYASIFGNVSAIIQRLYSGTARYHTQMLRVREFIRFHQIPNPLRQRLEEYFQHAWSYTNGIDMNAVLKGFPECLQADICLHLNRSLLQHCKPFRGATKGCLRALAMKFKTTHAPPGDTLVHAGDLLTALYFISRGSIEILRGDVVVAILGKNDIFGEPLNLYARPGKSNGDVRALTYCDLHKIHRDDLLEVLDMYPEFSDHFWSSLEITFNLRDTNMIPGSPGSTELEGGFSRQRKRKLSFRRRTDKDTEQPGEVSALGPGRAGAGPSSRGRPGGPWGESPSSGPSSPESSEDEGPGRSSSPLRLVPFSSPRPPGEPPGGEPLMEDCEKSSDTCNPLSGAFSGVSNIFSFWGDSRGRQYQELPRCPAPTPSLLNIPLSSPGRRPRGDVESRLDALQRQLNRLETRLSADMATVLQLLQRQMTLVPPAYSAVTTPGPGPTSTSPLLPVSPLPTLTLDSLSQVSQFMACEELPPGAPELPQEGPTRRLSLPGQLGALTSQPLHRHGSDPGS
T1 sequence (Q01827 whole entry): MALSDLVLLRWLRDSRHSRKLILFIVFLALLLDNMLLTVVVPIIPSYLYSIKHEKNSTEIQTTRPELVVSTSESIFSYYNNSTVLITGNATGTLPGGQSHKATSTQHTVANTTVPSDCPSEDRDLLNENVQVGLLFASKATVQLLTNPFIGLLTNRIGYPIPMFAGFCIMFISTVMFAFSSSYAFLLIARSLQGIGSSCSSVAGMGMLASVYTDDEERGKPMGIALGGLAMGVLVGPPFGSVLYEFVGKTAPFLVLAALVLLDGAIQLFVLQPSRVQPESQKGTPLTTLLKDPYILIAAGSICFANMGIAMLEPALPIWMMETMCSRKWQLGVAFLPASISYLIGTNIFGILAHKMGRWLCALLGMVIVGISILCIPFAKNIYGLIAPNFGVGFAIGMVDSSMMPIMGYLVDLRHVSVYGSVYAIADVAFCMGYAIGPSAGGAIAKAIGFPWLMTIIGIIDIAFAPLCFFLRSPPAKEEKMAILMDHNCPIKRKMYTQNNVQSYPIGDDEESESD

In the case of `CC(Cc1ccccc1)ONCCc1ccccc1` (racemic) [Compound 295], at VMAT2, the affinity corresponds to a Ki of 41300 nM. On the same count and under the same terms, the same measure for `CC(Cc1ccc(NC=O)cc1)NCCCc1ccc(F)cc1` (centres unmarked) [Compound 88]: 12 nM. With `FCC(Cc1ccccc1)NCCCc1ccc(F)cc1` (centres unmarked) [Compound 101], the Ki at VMAT2 (setting [1]) is 17 nM. `CC(C)C(Cc1ccc(F)cc1)NCCCc1ccccc1` (centres unmarked) [Compound 136] yielded an inhibition constant (Ki) on VMAT2 of 460 nM.

In the case of `CC(Cc1ccc(F)cc1)NCCCc1ccc(N(C)C)cc1` (centres unmarked) [Compound 156], on hERG channel, the inhibitory constant (Ki) is 49000 nM. `CC(Cc1ccc(F)cc1)NCCCc1ccc(Cl)cc1` (centres unmarked) [Compound 188] gave an inhibition constant Ki on hERG channel of 500 nM. As to `CC(Cc1ccc(F)c(F)c1)NCCCc1ccc2cn[nH]c2c1` (centres unmarked) [Compound 233], the inhibitory constant (Ki) turned out to be 33 nM at VMAT2 and 483 nM on hERG channel. The corresponding values for `CC(Cc1ccc(F)c(F)c1)NCCCc1cccc(S(N)(=O)=O)c1` (centres unmarked) [Compound 236] are 99 nM and 2010 nM.

Regarding `CC(Cc1ccc(F)c(F)c1)NCCCc1ccccc1N` (centres unmarked) [Compound 238], the Ki on VMAT2 was 220 nM; at hERG channel it was 3250 nM. Regarding `CC(Cc1ccc(Br)cc1)NCCCc1ccc(N)cc1` (centres unmarked) [Compound 240], the Ki on VMAT2 stood at 48 nM; on hERG channel, 1130 nM. The corresponding values for `CC(Cc1ccc(F)cc1)NCCCc1cccc(N)c1` (centres unmarked) [Compound 241] are 106 nM and 6390 nM. The corresponding values for `CC(Cc1ccc(F)cc1)NCCCc1ccc(Cl)c(N)c1` (centres unmarked) [Compound 242] are 38 nM and 1440 nM. The corresponding values for `CC(Cc1ccc(F)c(F)c1)NCCCc1ccc(-c2ccnn2C)cc1` (centres unmarked) [Compound 244] are 118 nM and 1030 nM.

Regarding `CC(Cc1ccc(F)c(F)c1)NCCCc1ccccc1-c1ccnn1C` (centres unmarked) [Compound 245], the inhibitory constant (Ki) at VMAT2 was determined as 136 nM; on hERG channel, 2240 nM. The corresponding values for `CC(Cc1c[nH]c2ccccc12)NCCCc1ccc(F)cc1` (centres unmarked) [Compound 246] are 66 nM and 731 nM. For `CC(Cc1ccc(F)c(F)c1)NCCCc1ccnc(C(F)(F)F)c1` (centres unmarked) [Compound 247], the inhibitory constant (Ki) at VMAT2 came to 349 nM. With `CC(Cc1ccc(F)c(F)c1)NCCCc1cccc(C(F)(F)F)c1` (centres unmarked) [Compound 250], the inhibition constant Ki turned out to be 39 nM on VMAT2 and 4100 nM at hERG channel. For `CC(Cc1ccc(F)cc1)NCCCc1ccc([N+](=O)[O-])c(C(F)(F)F)c1` (centres unmarked) [Compound 251], the Ki at VMAT2 stood at 55 nM; at hERG channel, 535 nM. The corresponding values for `CC(Cc1ccc(F)c(F)c1)NCCCc1ccc2ncsc2c1` (centres unmarked) [Compound 252] are 67 nM and 1580 nM. Take `CC(Cc1ccc(F)c(F)c1)NCCCc1ccc2c(c1)C(=O)OC2` (centres unmarked) [Compound 253]: the Ki at VMAT2 was found to be 268 nM.

The compound `CC(Cc1ccc(F)c(F)c1)NCCCc1ccc2c(c1)[nH]c(=O)n2C` (centres unmarked) [Compound 254] returned a Ki on VMAT2 of 187 nM. Regarding `CC(Cc1ccc(F)c(F)c1)NCCCc1cccc2ncoc12` (centres unmarked) [Compound 255], the figures for the Ki on VMAT2 and at hERG channel were 54 nM and 3370 nM, respectively. The corresponding values for `CC(Cc1ccc(F)c(F)c1)NCCCc1ccc2ncoc2c1` (centres unmarked) [Compound 256] are 50 nM and 4880 nM. The corresponding values for `CC(Cc1ccc(F)c(F)c1)NCCCc1ccc(C(=O)O)cc1` (centres unmarked) [Compound 257] are 6480 nM and greater than 34700 nM. The corresponding values for `CC(Cc1ccc(F)c(F)c1)NCCCc1ccc(OC(C)C)cc1` (centres unmarked) [Compound 259] are 104 nM and 818 nM. In the case of `CSc1ccc(CCCNC(C)Cc2ccc(F)c(F)c2)cc1` (centres unmarked) [Compound 261], the Ki stood at 32 nM on VMAT2 and 316 nM on hERG channel.

Turning to `CC(Cc1ccc(F)c(F)c1)NCCCc1ccc(C(C)(C)C)cc1` (centres unmarked) [Compound 264], the inhibitory constant (Ki) was 209 nM at VMAT2 and 2190 nM at hERG channel. The corresponding values for `CC(Cc1ccc(F)c(F)c1)NCCCc1cccc(N)c1` (centres unmarked) [Compound 265] are 202 nM and 5560 nM.

`CC(Cc1ccc(F)c(F)c1)NCCCc1cccc(N(C)C)c1` (centres unmarked) [Compound 266]: the Ki at VMAT2 worked out at 171 nM; on hERG channel, 2460 nM. Consider `CC(Cc1ccc(F)c(F)c1)NCCCc1cccc(Cl)c1` (centres unmarked) [Compound 267], for which the Ki is 19 nM on VMAT2 and 1000 nM at hERG channel. The corresponding values for `CC(Cc1ccc(F)c(F)c1)NCCCc1ccccc1Cl` (centres unmarked) [Compound 268] are 28 nM and 233 nM. The corresponding values for `CC(Cc1ccc(F)c(F)c1)NCCCc1ccc(Cl)cc1Cl` (centres unmarked) [Compound 269] are 61 nM and 279 nM. The corresponding values for `CC(Cc1ccc(F)c(F)c1)NCCCc1cc(Cl)cc(Cl)c1` (centres unmarked) [Compound 270] are 38 nM and 1500 nM.

For the compound `CC(Cc1ccc(F)c(F)c1)NCCCc1cccc(Cl)c1Cl` (centres unmarked) [Compound 271], the results for the Ki at VMAT2 and at hERG channel were 42 nM and 462 nM, respectively. The corresponding values for `CC(Cc1ccc(F)c(F)c1)NCCCc1ccc(Cl)c(Cl)c1` (centres unmarked) [Compound 272] are 57 nM and 462 nM. `CC(Cc1ccc(F)c(F)c1)NCCCc1ccc(Cl)c(C(F)(F)F)c1` (centres unmarked) [Compound 273]: the Ki on VMAT2 is 538 nM; on hERG channel, 1220 nM. The corresponding values for `CC(Cc1ccc(F)c(F)c1)NCCCc1ccc(NS(C)(=O)=O)cc1` (centres unmarked) [Compound 274] are 45 nM and 220 nM. The corresponding values for `CC(Cc1ccc(F)cc1)NCCCc1ccc(NS(C)(=O)=O)cc1` (centres unmarked) [Compound 275] are 53 nM and 308 nM. The corresponding values for `CC(=O)Nc1ccc(CCCNC(C)Cc2ccc(Br)cc2)cc1` (centres unmarked) [Compound 276] are 24 nM and 3430 nM. In the case of `CC(Cc1c[nH]c2ccccc12)NCCCc1ccc(F)cc1` (centres unmarked) [Compound 277], the inhibition constant Ki is 66 nM on VMAT2 (read-out: VMAT2 (rat) Inhibition: Mean Ki, [3H]DA uptake, rat vesicular preparation, mean of n>=3 unless N given) and 732 nM on hERG channel.

Turning to `CC(Cc1ccc(F)cc1)NCCCc1cccnc1` (centres unmarked) [Compound 278], the inhibitory constant (Ki) at VMAT2 is 98 nM; at hERG channel, 3980 nM. Take `CC(Cc1ccc(F)cc1)NCCCc1ccccn1` (centres unmarked) [Compound 279]: the results for the Ki on VMAT2 and on hERG channel were 200 nM and 2400 nM, respectively. The corresponding values for `CC(Cc1ccc(F)c(F)c1)NCCCc1cccc(-c2ccnn2C)c1` (centres unmarked) [Compound 281] are 51 nM and 592 nM.

As to `CC(Cc1ccc(F)c(F)c1)NCCCc1ccccc1-c1cccnc1` (centres unmarked) [Compound 282], the inhibition constant Ki on VMAT2 stood at 88 nM; on hERG channel, 364 nM. Take `O=C(O)C(Cc1ccc(F)cc1)NCCCc1ccc(Br)cc1` (centres unmarked) [Compound 286]: the affinity on VMAT2, expressed as Ki, was 3130 nM. Still for that read-out and setting: next, `NC(Cc1cn(Cc2ccccc2)cn1)C(=O)OCC(Cc1ccc(F)cc1)NCCCc1ccc(Br)cc1` (centres unmarked) [Compound 287]: 533 nM. The compound `CC(Cc1ccccc1)N(CCCc1ccc(O)cc1)C(=O)OC(C)(C)C` (centres unmarked) [Compound 288] returned a Ki on VMAT2 greater than 100000 nM. The same measure, in the same setting: next, `CC(Cc1ccccc1)N(CCCc1ccc([N+](=O)[O-])cc1)C(=O)OCc1ccccc1` (centres unmarked) [Compound 289]: 2970 nM. As to `CC(Cc1ccccc1)N(CCCc1ccc(I)cc1)C(=O)OCc1ccccc1` (centres unmarked) [Compound 290], the Ki on VMAT2 (setting [1]) was determined as 4800 nM.

Turning to `CC(Cc1ccccc1)N(CCCc1ccc(N)cc1)C(=O)OCc1ccccc1` (centres unmarked) [Compound 291], the inhibition constant (Ki) at VMAT2 (setting [1]) came out at 3100 nM. As to `C[C@H](Cc1ccccc1)ONCCc1ccccc1` [Compound 296], at VMAT2, the affinity corresponds to a Ki of 20000 nM.
